Entries after “also recorded” stand apart in the source; their conditions may differ. Ends that are not written are not given here.
What was measured:
[1] = Liposome leakage assay, POPC/cholesterol 3:2 liposomes; assay type: biochemical
From the text: FIG. 9: Liposome leakage assay. […] Emitted fluorescence was plotted against peptide concentration. […] C) Comparison of ppTG1, ppTG20 and ppTG21 at pH 7.
(§1) Leakage activity was plotted against peptide concentration.

[2] = system: HeLa cells; assay: Transfection in the presence of Bafilomycin A; assay type: cell-based; settings: 175 nM Bafilomycin A, 150 ng pTG11236
Protocol: Transfection in the presence of Bafilomycin A: 6×10^4 HeLa cells were plated on 24 well plates. Cells were treated with 175 nM Bafilomycin A 30 min before and throughout the transfection (1 h incubation of cells with transfection mix in the absence of serum).
Bafilomycin A is a specific inhibitor of the vacuolar proton pump. Treatment with Bafilomycin inhibits the acidification of late endosomes. HeLa cells were treated with Bafilomycin A (175 nM) 30 min before and throughout the transfection (1 h incubation with transfection complexes in the absence of serum). 6×10^4 cells were transfected with 150 ng pTG11236 using PEI or ppTG1. The luciferase assay was performed 1 day after transfection.

[3] = system: CHO cells; assay: Transfection in vitro, luciferase plasmid pTG11236; assay type: cell-based
Protocol: A comparison of ppTG1 and KALA was carried out in HeLa and CHO cells. 5×10^4 cells were seeded on 24 well plates. The next day, cells were transfected with 500 ng and 50 ng of pTG11236, complexed with ppTG1 or KALA in 30μl 0.9% NaCl. The charge ratio±varied from 1, 2, 3, 4, 7 to 10. Cells were harvested 20 h after transfection and lysis was obtained in 100 μl Promega lysis buffer. Luciferase activity and total protein concentrations in 20 μl were determined.

[4] = system: plasmid pTG11236; assay: Gel retardation assay (DNA binding activity)
Protocol: 3 μg of the plasmid pTG11236 were incubated with increasing amounts of the respective peptide in a final volume of 30 μl with 0.9% NaCl. After 20 min of incubation at room temperature, 6 μl 5× loading buffer (glycerol and bromphenol blue in TAE buffer) were added and 10 μl of these solutions were analyzed on a 1% agarose gel in the presence of ethidium bromide.
The ability of ppTG1 peptide to complex DNA was analyzed by gel retardation assays. […] After 20 minutes incubation at room temperature, loading buffer was added and 10 μl of the resulting solution were analyzed on a 1% agarose gel.
ppTG1 derivatives as they are indicated in Materials and Methods, were tested for their capacity to bind plasmid DNA by gel retardation assays.

[5] = system: B6SJL mice, lungs; assay: In vivo gene transfer after intravenous injection, luciferase activity in the lungs
Protocol: Mice were sacrificed at day 1.
Lungs were tested for luciferase activity.

[6] = Liposome leakage assay, calcein-containing POPC liposomes; assay type: biochemical
Protocol: as §1
The peptide ppTG1 was tested for its capacity to cause membrane disruption in a liposome leakage assay with POPC liposomes containing the fluorescent product calcein. […] Release of calcein by Triton X-100 treatment was taken as positive control reaction, incubation with water served as negative control. The membranolytic activity of peptide ppTG1 (20 μg as starting point) was compared with those of equal quantities (20 μg) of JTS-1, JTS-1-K13 and KALA.

[7] = system: WiDr, MDA-MB-435S, SW480 and LoVo; assay: Transfection of human tumor cell lines; assay type: cell-based; settings: peptide/plasmid pTG11236 complexes, luciferase day 1
Protocol: WiDr (ATCC CCL-218), MDA-MB-435S (ATCC HTB-129), SW480 (ATCC CCL-228) and LoVo cell (CCL-229) were cultivated in the appropriate medium with 10% fetal calf serum, 1% gentamycine, 1% glutamine and 3 g/l glucose, in an incubator at 37° C. and 5% CO2.
The transfection efficiencies with plasmid/ppTG1 complexes were tested in the human tumor cells WiDr, MDA-MB-435S, SW480 and LoVo (ATCC) in comparison to lipofectin, PEI and pcTG90/DOPE (1:1) [±] 5.

[8] = Liposome leakage assay, POPC/cholesterol 3:2 liposomes; assay type: biochemical; settings: POPC/chol liposomes, pH 5
[9] = system: B6SJL mice, lungs; assay: In vivo gene transfer after intravenous injection, luciferase activity in the lungs; settings: 3 days after injection
[10] = system: 293-EBNA cells; assay: Transfection in vitro, luciferase plasmid pTG11056; assay type: cell-based; settings: charge ratio around 1
Protocol: Cells were plated on 24 well plates at a density of 4×10^4 (293-EBNA ) or 7×10^4 (HeLa, Renca) cells/well in DMEM supplemented with 10% FCS. The next day, the medium was replaced by 200 μl serum-free DMEM and plasmid (PTG11056 or pTG11236)/peptide complexes or plasmid/peptide/lipid complexes were prepared in 30 μl 0.9% NaCl or 5% glucose. After 20 min at room temperature these complexes were added to the cells which were then incubated for 2-3 h at 37° C. and 5% CO2 before 1 ml serum-containing DMEM was added. Approximately 20 hours later, cells were lysed by addition of 100 μl 1× Promega lysis buffer, 20 μl of the lysates were analysed for luciferase activity. Proteins were quantified with the bicinchonic acid (BCA) colorimetric method (Smith, Anal. Biochem. 150 (1985), 76-85).
4×10^4 293-EBNA cells, plated on 24 well plates the day before, were transfected with 0.5 μg, 0.1 μg, 0.05 μg arid 0.01 μg of the plasmid pTG11056. The plasmid was either mixed with completely or uncompletely DNA-complexing amounts of ppTG1 in 30 μl 5% glucose and after 20 min at room temperature the mixture was added to the cells which were incubated in 200 μl serum-free medium. Further, pTG11056 was formulated with the established transfection reagents Lipofectin and PEI. […] After twenty hours, cells were washed and luciferase activity was determined in ⅕of the lysed cells.

Sequence: GLFKALLKLLKSLWKLLLKA
- liposome leakage activity ([1]; POPC/Chol (3:2) liposomes, pH not separated (compared at pH 5 and pH 7)): destabilizes efficiently
- liposome leakage activity / calcein release ([1]; POPC/chol liposomes, pH 7): efficiently liberate calcein
- liposome leakage of peptide/plasmid pTG11236 complexes ([1]; charge ratios (P/N) of 1 or 0.8, pH 7): slightly reduced
- liposome leakage of peptide/plasmid pTG11236 complexes ([1]; excess of peptide, P/N 5 or 10, pH 7): comparable to free ppTG1
- effect of Bafilomycin A on transfection efficiency [2]: did not influence
- more efficient in gene transfer than KALA ([3]; 50 ng pTG11236): 68 fold
- more efficient in gene transfer than KALA ([3]; 500 ng pTG11236): 9 fold
- more efficient than the complex comprising KALA ([3]; CHO cells, in the best case): 2500 fold
- DNA complexed ([4]; 1 μg peptide (0.35 nmol), 3 μg pTG11236): 50%
- amount of peptide giving retardation of plasmid ([4]; 3 μg plasmid DNA pTG11236 (0,8 pmol)): 4 µg
- re-administration of peptide/plasmid complexes ([5]; at day 3 after the first injection): refractory
- re-administration of peptide/plasmid complexes ([5]; at day 14 after the first injection): re-appearance of reporter gene expression
- mice with gene expression in the lung ([5]; complexes of pTG11236 and peptide, intravenous, day 1): 5 out of 5
- gene transfer efficiency in the lung ([5]; pTG11236/peptide complexes intravenously injected, luciferase day 1): at least comparable to gene transfer with the optimized lipoplexes; also recorded: comparable to those obtained with the lipoplexes; also recorded: better than with JTS-1-K13
- improvement of gene expression by presence of peptide in complexes comprising cationic lipids ([5]; pcTG90/DOPE 1:2 complexes, intravenous, lung, day 1): 10 factor
- membrane disruption ([6]; pH 5): capable of causing membrane disruption
- membrane disruption ([6]; pH 7): capable of causing membrane disruption
- transfection of human tumor cell lines [7]: successfully transfected; also recorded: can efficiently transfect
- liposome leakage activity / calcein release [8]: efficiently liberate calcein
- gene expression over time [9]: background levels
- transfection efficiency ([10]; 0.05 μg pTG11056 with 0.065 μg peptide): high transfection efficiency
- luciferase activities ([10]; 0.5 μg pTG11056 with 0.65 μg peptide): higher than those observed with complexes formed with Lipofectin or PEI

Reference: patent publication US20040132188A1, “Use of non-complexing peptides for the preparation of a composition for transfection of a polynucleotide into a cell and compositions useful in gene therapy” (priority 2001, published 2004)
